Patent US20140128349A1 (Indiana University School of Medicine, priority 2012, published 2014)
“Also recorded” adds a separate entry of the source.

Assays:
human melanoma cells = test: Hfg treatment of human melanoma cells; assay type: cell-based
Description: (§1) TGFbeta derived from bone fuels melanoma bone metastasis by inducing tumor secretion of pro-metastatic factors that act on bone cells to change the skeletal microenvironment. […] Hfg is active orally and by intraperitoneal injection, and it has completed Phase I clinical trials in cancer patients. It suppresses the phosphorylation and activation of Smad2 and Smad3 by inducting of Smad7. Overexpression of inhibitory Smad7 has been associated with a reduction on invasive capacity in vitro and anchorage-independent growth, and delays subcutaneous tumor growth in nude mice. The present inventors have shown that Smad7 overexpression decreased melanoma bone metastasis, thus is useful for treating and/or preventing muscle weakness and atrophy as well as other muscle related side effects in cancer patients.

1205Lu melanoma cells = test: 1205Lu melanoma metastasis in nude mice; assay type: in vivo
Description: as §1

RyR [1] = test: S107 blood brain barrier crossing and calstabin binding to RyR in brain in vivo
Description: Data from heart and soleus muscle are also illustrated.
Cardiac muscle RyR2 is PKA hyperphosphorylated, oxidized, nitrosylated and depleted of calstabin2 in animal models of heart failure (HF) and in the hearts of patients with HF. […] Compounds of formula I-o, which share a common structure with S107, are also expected to have similar activities. This advantage is expected to enhance the ability of the TGFbeta inhibitor to be available to act upon most body tissues for improved effectiveness.

RyR2 = details: animals; cited from earlier work
RyR [2] = details: cited from earlier work
RyR1 [3] = molecular target: T1, RyR1 (Mus musculus, UniProt E9PZQ0); set-up: from tissue; host or cells: skeletal muscle of mdx mice; details: mdx model of DMD; cited from earlier work
T1 sequence (E9PZQ0 whole entry): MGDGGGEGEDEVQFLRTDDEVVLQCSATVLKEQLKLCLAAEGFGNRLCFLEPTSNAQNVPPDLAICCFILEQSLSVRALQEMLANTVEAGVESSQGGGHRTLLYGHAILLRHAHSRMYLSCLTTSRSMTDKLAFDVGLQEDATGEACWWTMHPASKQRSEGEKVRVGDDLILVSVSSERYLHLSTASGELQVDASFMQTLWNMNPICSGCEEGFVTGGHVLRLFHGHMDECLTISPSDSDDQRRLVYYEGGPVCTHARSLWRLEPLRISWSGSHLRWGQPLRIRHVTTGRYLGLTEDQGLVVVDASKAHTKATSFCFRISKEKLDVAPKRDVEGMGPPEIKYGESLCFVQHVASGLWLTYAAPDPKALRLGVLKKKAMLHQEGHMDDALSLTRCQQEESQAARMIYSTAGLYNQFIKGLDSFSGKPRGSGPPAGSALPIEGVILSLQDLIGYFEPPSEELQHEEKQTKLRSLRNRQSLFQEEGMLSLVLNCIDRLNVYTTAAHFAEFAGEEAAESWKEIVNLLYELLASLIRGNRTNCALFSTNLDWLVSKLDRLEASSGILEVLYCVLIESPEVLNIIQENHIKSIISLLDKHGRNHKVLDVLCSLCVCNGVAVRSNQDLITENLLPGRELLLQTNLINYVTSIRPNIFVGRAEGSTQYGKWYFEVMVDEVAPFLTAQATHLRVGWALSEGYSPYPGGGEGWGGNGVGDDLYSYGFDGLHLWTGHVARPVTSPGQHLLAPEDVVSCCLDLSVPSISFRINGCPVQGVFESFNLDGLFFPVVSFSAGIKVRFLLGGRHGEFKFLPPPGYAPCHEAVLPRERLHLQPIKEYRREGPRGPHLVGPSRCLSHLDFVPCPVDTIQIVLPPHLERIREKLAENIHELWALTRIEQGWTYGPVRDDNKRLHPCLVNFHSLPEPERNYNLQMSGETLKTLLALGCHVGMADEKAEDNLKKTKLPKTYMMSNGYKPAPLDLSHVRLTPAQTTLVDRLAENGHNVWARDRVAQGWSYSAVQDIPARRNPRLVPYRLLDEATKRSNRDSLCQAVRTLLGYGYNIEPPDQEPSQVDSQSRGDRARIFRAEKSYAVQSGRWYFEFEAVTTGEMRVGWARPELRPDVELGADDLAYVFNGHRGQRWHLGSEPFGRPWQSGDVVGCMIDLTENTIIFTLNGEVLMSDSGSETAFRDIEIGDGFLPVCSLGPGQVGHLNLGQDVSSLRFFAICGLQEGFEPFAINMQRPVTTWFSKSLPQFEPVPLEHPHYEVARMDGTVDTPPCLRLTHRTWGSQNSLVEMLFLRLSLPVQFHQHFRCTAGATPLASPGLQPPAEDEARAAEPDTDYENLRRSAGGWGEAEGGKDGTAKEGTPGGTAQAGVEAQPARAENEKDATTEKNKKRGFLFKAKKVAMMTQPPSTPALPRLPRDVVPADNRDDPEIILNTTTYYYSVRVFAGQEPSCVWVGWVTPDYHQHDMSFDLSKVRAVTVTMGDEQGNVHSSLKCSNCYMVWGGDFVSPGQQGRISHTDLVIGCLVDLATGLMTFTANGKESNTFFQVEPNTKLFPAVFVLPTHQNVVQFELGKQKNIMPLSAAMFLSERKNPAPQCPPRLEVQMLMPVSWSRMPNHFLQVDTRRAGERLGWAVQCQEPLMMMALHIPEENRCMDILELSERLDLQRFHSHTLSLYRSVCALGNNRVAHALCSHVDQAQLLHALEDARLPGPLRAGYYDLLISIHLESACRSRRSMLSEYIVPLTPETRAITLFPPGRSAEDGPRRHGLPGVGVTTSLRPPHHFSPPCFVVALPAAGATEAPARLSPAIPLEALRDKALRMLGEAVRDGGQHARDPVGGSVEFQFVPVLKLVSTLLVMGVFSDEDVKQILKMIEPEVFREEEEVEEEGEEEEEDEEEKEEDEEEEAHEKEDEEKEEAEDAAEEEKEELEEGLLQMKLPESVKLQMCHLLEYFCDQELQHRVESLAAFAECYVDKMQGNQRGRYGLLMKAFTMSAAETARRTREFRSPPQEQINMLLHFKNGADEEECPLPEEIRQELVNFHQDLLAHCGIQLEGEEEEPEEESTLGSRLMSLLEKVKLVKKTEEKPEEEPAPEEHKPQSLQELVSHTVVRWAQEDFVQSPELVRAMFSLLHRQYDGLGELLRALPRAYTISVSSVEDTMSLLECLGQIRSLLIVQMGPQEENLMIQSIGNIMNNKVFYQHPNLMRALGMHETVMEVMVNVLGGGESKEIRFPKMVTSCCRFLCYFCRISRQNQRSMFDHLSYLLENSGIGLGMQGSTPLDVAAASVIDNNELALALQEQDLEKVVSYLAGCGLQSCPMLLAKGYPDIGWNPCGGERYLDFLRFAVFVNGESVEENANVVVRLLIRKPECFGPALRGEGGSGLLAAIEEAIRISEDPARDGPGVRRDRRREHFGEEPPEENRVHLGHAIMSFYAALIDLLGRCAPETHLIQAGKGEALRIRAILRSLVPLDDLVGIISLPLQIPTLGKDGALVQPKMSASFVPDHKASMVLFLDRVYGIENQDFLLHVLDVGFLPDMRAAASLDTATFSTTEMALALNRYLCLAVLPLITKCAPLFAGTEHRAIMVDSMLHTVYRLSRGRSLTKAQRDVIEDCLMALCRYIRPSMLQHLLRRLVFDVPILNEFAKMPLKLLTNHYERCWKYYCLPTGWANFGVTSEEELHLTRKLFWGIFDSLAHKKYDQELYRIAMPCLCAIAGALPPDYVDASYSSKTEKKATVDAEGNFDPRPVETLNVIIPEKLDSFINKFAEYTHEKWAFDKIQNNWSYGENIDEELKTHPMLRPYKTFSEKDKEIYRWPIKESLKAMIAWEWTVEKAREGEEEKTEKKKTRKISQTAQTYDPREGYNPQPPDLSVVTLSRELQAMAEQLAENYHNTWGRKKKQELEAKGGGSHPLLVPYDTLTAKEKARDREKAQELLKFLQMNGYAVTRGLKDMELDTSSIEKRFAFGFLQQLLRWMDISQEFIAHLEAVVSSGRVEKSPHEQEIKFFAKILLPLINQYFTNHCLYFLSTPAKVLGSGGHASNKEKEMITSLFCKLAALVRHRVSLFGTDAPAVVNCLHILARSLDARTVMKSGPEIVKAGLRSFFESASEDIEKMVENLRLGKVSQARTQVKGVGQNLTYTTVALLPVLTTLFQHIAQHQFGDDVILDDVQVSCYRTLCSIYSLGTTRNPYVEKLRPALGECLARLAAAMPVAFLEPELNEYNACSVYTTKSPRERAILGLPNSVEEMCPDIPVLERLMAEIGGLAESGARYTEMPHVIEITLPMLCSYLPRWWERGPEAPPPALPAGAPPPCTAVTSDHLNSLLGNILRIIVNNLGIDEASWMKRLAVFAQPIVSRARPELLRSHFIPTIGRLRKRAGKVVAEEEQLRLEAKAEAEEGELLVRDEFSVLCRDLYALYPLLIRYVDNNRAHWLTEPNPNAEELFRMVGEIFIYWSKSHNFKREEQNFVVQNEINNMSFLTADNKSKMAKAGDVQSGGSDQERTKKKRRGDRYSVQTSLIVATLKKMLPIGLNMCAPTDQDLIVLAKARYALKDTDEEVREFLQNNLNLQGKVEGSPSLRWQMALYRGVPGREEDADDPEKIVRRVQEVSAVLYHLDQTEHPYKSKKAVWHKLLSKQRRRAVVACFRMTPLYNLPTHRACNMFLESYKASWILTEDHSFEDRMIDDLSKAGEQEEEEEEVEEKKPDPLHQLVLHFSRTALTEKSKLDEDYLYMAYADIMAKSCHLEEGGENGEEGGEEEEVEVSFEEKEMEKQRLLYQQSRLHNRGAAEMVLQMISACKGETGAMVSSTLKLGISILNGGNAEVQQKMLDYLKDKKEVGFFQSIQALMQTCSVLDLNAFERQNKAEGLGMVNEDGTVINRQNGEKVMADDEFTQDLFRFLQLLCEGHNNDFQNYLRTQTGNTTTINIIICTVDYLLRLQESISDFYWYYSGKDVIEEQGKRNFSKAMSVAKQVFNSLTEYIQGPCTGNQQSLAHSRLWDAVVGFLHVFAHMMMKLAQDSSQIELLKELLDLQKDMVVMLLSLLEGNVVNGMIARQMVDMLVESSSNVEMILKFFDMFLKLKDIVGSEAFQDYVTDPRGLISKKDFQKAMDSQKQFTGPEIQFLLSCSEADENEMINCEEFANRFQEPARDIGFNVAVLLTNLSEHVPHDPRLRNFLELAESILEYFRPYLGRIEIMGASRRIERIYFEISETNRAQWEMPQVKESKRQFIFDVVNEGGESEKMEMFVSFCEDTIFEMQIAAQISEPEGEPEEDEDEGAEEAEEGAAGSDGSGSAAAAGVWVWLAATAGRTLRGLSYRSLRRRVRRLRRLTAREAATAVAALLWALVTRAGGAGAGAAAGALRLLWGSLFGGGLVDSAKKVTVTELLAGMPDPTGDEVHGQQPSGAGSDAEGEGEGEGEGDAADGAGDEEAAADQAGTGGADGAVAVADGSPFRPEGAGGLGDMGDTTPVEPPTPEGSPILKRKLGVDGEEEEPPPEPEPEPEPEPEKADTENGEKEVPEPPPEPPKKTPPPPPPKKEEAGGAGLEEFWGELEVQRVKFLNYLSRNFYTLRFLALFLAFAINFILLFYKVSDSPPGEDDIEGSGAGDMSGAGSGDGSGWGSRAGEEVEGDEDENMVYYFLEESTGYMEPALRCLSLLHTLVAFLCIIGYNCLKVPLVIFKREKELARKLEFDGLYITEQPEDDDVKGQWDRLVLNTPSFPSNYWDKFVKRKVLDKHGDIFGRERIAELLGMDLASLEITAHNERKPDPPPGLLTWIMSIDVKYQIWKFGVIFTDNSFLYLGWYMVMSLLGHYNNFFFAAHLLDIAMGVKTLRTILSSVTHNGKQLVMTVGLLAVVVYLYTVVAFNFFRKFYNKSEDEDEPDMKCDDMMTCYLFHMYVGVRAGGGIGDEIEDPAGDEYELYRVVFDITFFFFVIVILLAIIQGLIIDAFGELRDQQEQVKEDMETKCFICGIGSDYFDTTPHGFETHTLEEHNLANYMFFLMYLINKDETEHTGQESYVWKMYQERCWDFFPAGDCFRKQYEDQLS
T1 sequence (P26883 2-108 partner limits assumed): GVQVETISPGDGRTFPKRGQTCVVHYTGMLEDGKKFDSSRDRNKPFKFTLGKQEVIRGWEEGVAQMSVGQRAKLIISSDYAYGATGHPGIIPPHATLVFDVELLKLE

RyR1 [4] = molecular target: T1, RyR1; set-up: in a mouse model of aging, oxidation of skeletal muscle RyR1 causes depletion of the stabilizing subunit calstabin1 (FKBP12); from tissue; host or cells: skeletal muscle of aged (2 yr old) mice; details: mouse model of aging; cited from earlier work
[5] = EDL muscle specific force in mice with PC-3 prostate cancer bone metastases; assay type: in vivo; details: hypogonadal mice with PC-3 prostate cancer metastatic to bone
Experimental: (§2) In embodiments B and C are shown decreased skeletal muscle cross-sectional area in tumor-bearing mice determined by Micro-CT as described herein. In embodiments D and E are shown decreased body weight (D) and decreased Grip strength (E) in PC-3 tumor bearing mice. […] In embodiment J is shown that RyR1 is oxidized and there is decreased calstabin1 in the RyR1 complex from, skeletal muscle (EDL) from mice with metastatic prostate cancer. RyR1 was immunoprecipitated from 250 μg of EDL homogenate using an anti-RyR antibody (4 μg 5029 Ab), and the immunoprecipitates were separated on SDS-PAGE gels (6% for RyR. 15% for Calstabin). All immunoblots were developed and quantified with the Odyssey system (LI-COR, Inc., Lincoln, Nebr.) using IR labeled anti-mouse and anti-Rabbit IgG (1:10,000 dilution) secondary antibodies. Immunoblots developed using anti-RyR (clone 34C, 1:5,000), anti-Cys-NO (1:1000, Sigma, St. Louis, Mo.), anti-DNP (to determine RyR1 oxidation. 1:250), and anticalstabin (1:2500). […] Quantification of immunoblots showing the relative nitrotyrosine/SERCA for each group of EDLs tested. *p<0.01 compared to non-cancer controls as analyzed by ANOVA. […]
S107 is administered in the drinking water at a dose of 50 mg/kg/d, water consumption is monitored and plasma drug levels determined. […]

RyR1 [6] = test: RyR1 oxidation/nitrosylation/calstabin1 immunoblot of EDL from PC-3 tumor bearing mice; assay type: in vivo; details: mice with prostate cancer metastatic to bone
Experimental: as §2, with “antibodies.” for “antibodies. Immunoblots developed using anti-RyR (clone 34C, 1:5,000), anti-Cys-NO (1:1000, Sigma, St. Louis, Mo.), anti-DNP (to determine RyR1 oxidation. 1:250), and anticalstabin (1:2500).”
Quantification of RyR1 skeletal channel nitrosylation, oxidation and phosphorylation by protein kinase A (PKA) are performed as described (Bellinger et al., 2009; Bellinger et al., 2008b).
Quantification of depletion of the channel stabilizing subunit calstabin 1 (FKBP12) from skeletal RyR1 by immunoprecipitation techniques are performed as described (Marx et al., 2000). […]

PC-3 bone metastases = test: PC-3 prostate cancer bone metastases in mice; assay type: in vivo; details: osteolytic model; X-ray, osteolytic lesion area, survival
Description: For all mouse experiments, N=15 for each group of mice for tumors inoculated in the left cardiac ventricle (PC-3) or intratibially (LuCAP23.1) based on power analysis detailed below. Male nude mice are housed in laminar flow isolated hoods with water supplemented with vitamin K and autoclaved mouse chow provided ad libitum. Cells are introduced into mice at 4 wks of age. Animals are anesthetized with ketamine/xylazine and positioned ventral side up.
Multiple modalities of bone imaging including X-ray and μCT are used to longitudinally monitor the bone lesions and confirmed by histology and quantitative histomorphometry as previously described (Dunn et al., 2009; Guise et al., 1996b; Yin et al., 1999). Muscle mass are followed serially in vivo using the Piximus II system (Wiren et al., 2011) and microCT (Manske et al., 2011).

[7] = system: LuCaP 23.1 human prostate cancer osteoblastic xenograft; test: LuCaP 23.1 osteoblastic prostate cancer xenograft in tibia of nude mice; assay type: in vivo
Description: Four-week old, male nude mice were inoculated into the tibia with LuCaP 23.1 human prostate cancer osteoblastic xenograft (n=14-15/group).

[8] = co-administration of S107 and SD208 in tumor bearing mice; assay type: in vivo; details: S107 in drinking water about 50 mg/kg/day
Experimental: For example, administering the TGFbeta kinase inhibitor SD208 prevents oxidation of RyR1 and SERCA in skeletal muscles from tumor bearing mice, thus increasing muscle specific force production and grip strength in these mice. The co-administration of S107 further inhibits SR Ca^2+ leak by reducing the stress-induced depletion of calstabin from the RyR channel complex. […] Thus, when these are co-administered, the benzothiazepine derivative is administered at a dosage of between about 20 mg/kg/day and about 100 mg/kg/day and the inhibitor is administered in an amount of about 10 mg/kg/day and about 50 mg/kg/day. The ratio of the amount of benzothiazepine derivative to inhibitor in the co-administered formulation should be between 1:1 to 5:1 and preferably 1.3:1 to 2.5:1. Also, the benzothiazepine and inhibitor can be administered at the same time in a single formulation or sequentially if each is present in a separate formulation.

[9] = patients with prostate cancer bone metastases, regardless of radiographic phenotype; cited from earlier work

## O=C(CC1NCCCC1O)Cn1cnc2cc(Br)c(Cl)cc2c1=O (stereo not shown) [Halofuginone]
Human melanoma cells
  cell proliferation: inhibited cell proliferation
  expression of TGFbeta target genes (PTHrP, CTGF, CXCR4, IL11): reducing expression of TGFbeta target genes
1205Lu melanoma cells; assessed by radiography, vs placebo
  osteolysis in mice with established bone metastasis: significantly less osteolysis than mice receiving placebo
1205Lu melanoma cells; nude mice inoculated with 1205Lu melanoma cells
  bone metastasis, preventive protocol: inhibited bone metastasis

## COc1ccc2c(c1)CN(C)CCS2 [S107]
RyR [1]
  crossing of the blood brain barrier: crosses the blood brain barrier
RyR [1]; mid-section and cerebellum
  binding of calstabin to RyR in the brain: enhances binding of calstabin to a RyR in the brain
RyR2
  HF progression: inhibits HF progression
RyR [2]
  specificity: RyR specific
RyR1 [3]
  grip strength: improves grip strength
  muscle damage: reduced muscle damage
RyR1 [4]
  SR Ca2+ leak (Ca2+ sparks, channel open probability): reduced SR Ca^2+ leak
  exercise capacity: improved
  muscle force production: improved muscle force production
  oxidation induced depletion of calstabin1 from RyR1: prevented oxidation induced depletion of calstabin1 from RyR1
  tetanic [Ca2+]: increased tetanic [Ca^2+]

## Fc1ccc(Cl)cc1-c1nc(Nc2ccncc2)c2nccnc2n1 [SD-208]
[5]
  muscle (EDL) specific force production: improved muscle specific force production
RyR1 [6]
  skeletal muscle RyR1 oxidation, nitrosylation and depletion of calstabin 1: prevented oxidation/nitrosylation/calstabin1 depletion from RyR1; also recorded: prevented oxidation of RyR1
PC-3 bone metastases
  prevention of PC-3 bone metastases: highly effective to prevent bone metastases due to PC-3; also recorded: prevents PC-3 bone metastases
[7]; 50 or 150 mg/kg/day po, from 12 weeks post inoculation
  bone formation and tumor growth in LuCaP 23.1: does not increase bone formation or tumor growth
[7]; osteoblastic model
  efficacy against LuCAP23.1 bone metastases: not effective against LuCAP23.1 bone metastases
[8]
  effect of oral SD208 about 30 mg/kg/day co-administered with S107: same effects as administering SD208 at a dosage of about 60 mg/kg/day

## denosumab: inhibitor of bone resorption
[9]
  skeletal morbidity: reduce skeletal morbidity
